Measurements published in patent US20080221116A1, “ISOXAZOLINE ALPHA 1a/1d ADRENORECEPTOR ANTAGONISTS” (priority 2006, published 2008).
Several values for one entry are separate records, joined by “and”; a condition that tells them apart may be missing. Identical values can stand only once. Like-named read-outs stand apart in the source and are kept apart here.

Experiments:
α1b-AR = target: T1, α1b-AR (Homo sapiens, UniProt P35368); test: α1-Adrenergic Receptor Binding Assay, 125I-HEAT radio-ligand binding, transfected COS-7 cell membranes, α1b subtype; details: COS-7 membranes
T1 construct: expressed in transfected cells; host or cells: COS-7 cells (African Green monkey kidney), membranes
T1 sequence (P35368 1-520): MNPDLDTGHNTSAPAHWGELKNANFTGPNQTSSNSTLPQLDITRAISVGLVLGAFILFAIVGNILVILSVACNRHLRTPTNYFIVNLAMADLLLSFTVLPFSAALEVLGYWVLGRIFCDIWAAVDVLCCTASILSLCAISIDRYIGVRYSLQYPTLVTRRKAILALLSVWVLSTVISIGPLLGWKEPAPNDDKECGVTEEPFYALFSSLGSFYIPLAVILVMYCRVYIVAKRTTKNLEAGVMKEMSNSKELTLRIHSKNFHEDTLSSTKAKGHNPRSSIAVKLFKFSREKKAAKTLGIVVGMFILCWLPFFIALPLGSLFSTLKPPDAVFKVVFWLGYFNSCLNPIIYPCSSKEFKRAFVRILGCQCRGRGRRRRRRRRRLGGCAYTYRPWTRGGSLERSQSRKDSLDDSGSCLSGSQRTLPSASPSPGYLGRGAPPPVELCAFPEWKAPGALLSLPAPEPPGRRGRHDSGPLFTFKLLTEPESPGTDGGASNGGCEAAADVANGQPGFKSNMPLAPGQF
Method in brief: (§1)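 Competition binding of ¹²⁵I-HEAT ([…]) on membranes from COS-7 cells transfected with each human α1-AR subtype; membrane 0.5 ng/μL (α1a, α1b) or 13 ng/μL (α1d). Compound […] in half-log steps, triplicates, 1 hr at rt. Filtration and scintillation counting; Ki (nM) derived.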

α1d-AR = target: T2, α1d-AR (Homo sapiens, UniProt P25100); test: α1-Adrenergic Receptor Binding Assay, 125I-HEAT radio-ligand binding, transfected COS-7 cell membranes, α1d subtype; details: COS-7 membranes
T2 construct: expressed in transfected cells; host or cells: COS-7 cells (African Green monkey kidney), membranes
T2 sequence (P25100 1-572): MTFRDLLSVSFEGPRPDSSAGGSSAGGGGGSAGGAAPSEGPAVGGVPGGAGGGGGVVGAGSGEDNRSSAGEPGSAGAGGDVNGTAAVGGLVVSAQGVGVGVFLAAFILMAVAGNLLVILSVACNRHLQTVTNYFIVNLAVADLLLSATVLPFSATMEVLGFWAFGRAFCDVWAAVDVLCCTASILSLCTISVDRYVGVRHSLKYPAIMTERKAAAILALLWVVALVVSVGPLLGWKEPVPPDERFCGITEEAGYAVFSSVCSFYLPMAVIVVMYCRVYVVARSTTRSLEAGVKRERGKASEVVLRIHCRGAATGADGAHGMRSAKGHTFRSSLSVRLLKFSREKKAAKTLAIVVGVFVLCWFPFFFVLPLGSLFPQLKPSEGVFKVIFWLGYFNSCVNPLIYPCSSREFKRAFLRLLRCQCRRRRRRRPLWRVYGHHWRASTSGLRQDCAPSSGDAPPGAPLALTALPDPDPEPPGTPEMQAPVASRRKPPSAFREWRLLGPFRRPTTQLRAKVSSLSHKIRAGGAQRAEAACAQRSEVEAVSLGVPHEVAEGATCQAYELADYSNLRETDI
Method in brief: as §1

α1a-AR = target: T3, α1a-AR (Homo sapiens, UniProt P35348); test: α1-Adrenergic Receptor Binding Assay, 125I-HEAT radio-ligand binding, transfected COS-7 cell membranes, α1a subtype; details: COS-7 membranes
T3 construct: expressed in transfected cells; host or cells: COS-7 cells (African Green monkey kidney), membranes
T3 sequence (P35348 1-466): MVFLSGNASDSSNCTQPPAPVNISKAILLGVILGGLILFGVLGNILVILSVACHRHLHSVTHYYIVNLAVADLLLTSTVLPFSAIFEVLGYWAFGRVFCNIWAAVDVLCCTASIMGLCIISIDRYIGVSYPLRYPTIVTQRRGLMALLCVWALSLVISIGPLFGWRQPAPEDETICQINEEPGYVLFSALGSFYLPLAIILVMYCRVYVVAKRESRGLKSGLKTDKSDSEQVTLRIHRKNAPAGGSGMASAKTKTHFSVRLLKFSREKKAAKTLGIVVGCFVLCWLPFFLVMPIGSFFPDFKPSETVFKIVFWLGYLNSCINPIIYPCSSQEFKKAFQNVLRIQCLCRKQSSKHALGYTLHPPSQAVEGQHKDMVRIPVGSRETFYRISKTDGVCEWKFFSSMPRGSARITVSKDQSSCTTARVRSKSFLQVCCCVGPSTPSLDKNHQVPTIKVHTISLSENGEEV
Method in brief: as §1

[1] = as described in the article; cited from earlier work
5-HT1A site = target: T4, 5-HT1A site (Homo sapiens, UniProt P08908); details: as described in the article; cited from earlier work
T4 sequence (P08908 1-422): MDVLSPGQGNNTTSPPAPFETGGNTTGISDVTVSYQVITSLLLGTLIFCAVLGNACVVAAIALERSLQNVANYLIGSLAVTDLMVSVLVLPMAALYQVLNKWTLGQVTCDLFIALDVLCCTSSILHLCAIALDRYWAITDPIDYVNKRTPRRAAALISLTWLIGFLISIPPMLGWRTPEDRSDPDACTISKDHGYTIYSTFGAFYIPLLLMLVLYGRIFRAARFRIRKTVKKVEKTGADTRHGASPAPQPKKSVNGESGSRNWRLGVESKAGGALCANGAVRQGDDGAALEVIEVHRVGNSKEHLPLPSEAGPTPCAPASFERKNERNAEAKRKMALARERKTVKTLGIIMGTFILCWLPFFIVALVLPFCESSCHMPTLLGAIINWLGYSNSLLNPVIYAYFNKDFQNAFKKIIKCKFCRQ

D2 = D2 (Homo sapiens, UniProt P14416); details: as described in the article; cited from earlier work
[2] = average value, read-out: Alpha 1 Ki α1b (1) Average Value
[3] = individual values, read-out: Alpha 1 Ki α1b (2) Individual Values
[4] = average value, read-out: Alpha 1 Ki α1d (1) Average Value
[5] = individual values, read-out: Alpha 1 Ki α1d (2) Individual Values
[6] = average value, read-out: Alpha 1 Ki α1a (1) Average Value
[7] = individual values, read-out: Alpha 1 Ki α1a (2) Individual Values

D2, sequence (P14416 whole entry): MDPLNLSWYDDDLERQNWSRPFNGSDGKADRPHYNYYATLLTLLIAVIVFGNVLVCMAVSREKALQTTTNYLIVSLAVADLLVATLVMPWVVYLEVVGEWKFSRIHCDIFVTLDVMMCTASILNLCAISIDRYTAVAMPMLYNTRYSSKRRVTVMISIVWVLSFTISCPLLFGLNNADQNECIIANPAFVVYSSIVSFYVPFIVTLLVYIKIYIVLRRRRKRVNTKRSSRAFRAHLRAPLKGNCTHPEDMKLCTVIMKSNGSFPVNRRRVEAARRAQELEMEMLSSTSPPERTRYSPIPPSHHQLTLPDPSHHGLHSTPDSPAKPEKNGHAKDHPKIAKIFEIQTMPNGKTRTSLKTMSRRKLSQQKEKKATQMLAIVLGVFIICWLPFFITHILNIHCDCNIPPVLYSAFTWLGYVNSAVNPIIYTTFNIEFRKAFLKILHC

| SMILES | Ki (α1b-AR; [2]) [nM] | Ki (α1b-AR; [3]) | Ki (α1d-AR; [4]) [nM] | Ki (α1d-AR; [5]) | Ki (α1a-AR; [6]) [nM] | Ki (α1a-AR; [7]) | melting point [°C] | Conditioned Avoidance Response (CAR) activity [1] | binding affinity for the 5-HT1A site (5-HT1A site) | D2 binding (D2) |
| --- | --- | --- | --- | --- | --- | --- | --- | --- | --- | --- |
| CC(C)Oc1ccccc1N1CCN(CC2CC(C(=O)N3CCC(Oc4ccccc4)CC3)=NO2)CC1 (stereo not shown) [Compound 29, {5-[4-(2-isopropoxy-phenyl)-piperazin-1-ylmethyl]-4,5-dihydro-isoxazol-3-yl}-(4-phenoxy-piperidin-1-yl)-methanone] | 672 | 1010 nM and 333 nM | 8.2 | 5.6 nM and 10.8 nM | 6.8 | 2.2 nM and 11.4 nM |  |  |  |  |
| CC(C)Oc1ccccc1N1CCN(CC2CC(C(=O)N3CCC(S(=O)(=O)c4ccccc4)CC3)=NO2)CC1 (stereo not shown) [Compound 30, (4-benzenesulfonyl-piperidin-1-yl)-{5-[4-(2-isopropoxy-phenyl)-piperazin-1-ylmethyl]-4,5-dihydro-isoxazol-3-yl}-methanone] | 173 | 164 nM and 183 nM | 4.5 | 5.8 nM and 3.2 nM | 3.4 | 3.4 nM | 74 to 76 |  |  |  |
| CC(C)Oc1ccccc1N1CCN(CC2CC(C(=O)N3CCC(c4ccccc4)(c4ccccc4)CC3)=NO2)CC1 (stereo not shown) [Compound 31, (4,4-diphenyl-piperidin-1-yl)-{5-[4-(2-isopropoxy-phenyl)-piperazin-1-ylmethyl]-4,5-dihydro-isoxazol-3-yl}-methanone] | 248 | 248 nM | 9.6 | 9.6 nM | 25 | 25 nM | 61 to 63 |  |  |  |
| CC(C)Oc1ccccc1N1CCN(CC2CC(C(=O)N3CCC(Oc4ccccn4)CC3)=NO2)CC1 (stereo not shown) [Compound 32, {5-[4-(2-isopropoxy-phenyl)-piperazin-1-ylmethyl]-4,5-dihydro-isoxazol-3-yl}-[4-(pyridin-2-yloxy)-piperidin-1-yl]-methanone] | 264 | 264 nM | 44.6 | 44.6 nM | 41.7 | 41.7 nM |  |  |  |  |
| COc1ccccc1C1CCN(C(=O)C2=NOC(CN3CCN(c4ccccc4OC(C)C)CC3)C2)CC1 (stereo not shown) [Compound 33, {5-[4-(2-isopropoxy-phenyl)-piperazin-1-ylmethyl]-4,5-dihydro-isoxazol-3-yl}-[4-(2-methoxy-phenyl)-piperidin-1-yl]-methanone] | 254 | 254 nM | 20 | 20 nM | 19 | 19 nM |  |  |  |  |
| CC(C)Oc1ccccc1N1CCN(CC2CC(C(=O)N3CCC(Oc4ccc(Cl)cc4)CC3)=NO2)CC1 (stereo not shown) [Compound 34, [4-(4-chloro-phenoxy)-piperidin-1-yl]-{5-[4-(2-isopropoxy-phenyl)-piperazin-1-ylmethyl]-4,5-dihydro-isoxazol-3-yl}-methanone] | 255 | 255 nM | 27 | 27 nM | 40 | 40 nM |  |  |  |  |
| CC(C)Oc1ccccc1N1CCN(CC2CC(C(=O)N3CCCC3)=NO2)CC1 (stereo not shown) [Compound 35, {5-[4-(2-isopropoxy-phenyl)-piperazin-1-ylmethyl]-4,5-dihydro-isoxazol-3-yl}-pyrrolidin-1-yl-methanone] | 212 | 183 nM and 242 nM | 9 | 11 nM and 7 nM | 3.65 | 1.6 nM and 5.7 nM |  |  |  |  |
| CC(C)Oc1ccccc1N1CCN(CC2CC(CO)=NO2)CC1 (stereo not shown) [compound 49, 4,5-dihydro-5-[[4-[2-(1-methylethoxy)phenyl]-1-piperazinyl]methyl]-3-isoxazolemethanol] |  |  |  |  |  |  |  | strong | lack | lack |
| CC(C)Oc1ccccc1N1CCN(CC2CC(CN3CCCCC3=O)=NO2)CC1.O.[O-][Cl+3]([O-])([O-])O (stereo not shown) [compound 50, 1-[[4,5-dihydro-5-[[4-[2-(1-methylethoxy)phenyl]-1-piperazinyl]methyl]-3-isoxazolyl]methyl]-piperidin-2-one perchlorate hydrate] |  |  |  |  |  |  |  | not so active | moderately high |  |
